Values of other authors in patent publication US7491718B2, “Sulfonamides having antiangiogenic and anticancer activity” (Abbott Laboratories, priority 2002, dated 2009).

Target: type 2-methionine aminopeptidase (MetAP-2) (Homo sapiens, UniProt P50579)
Conditions: reported in Proc. Natl. Acad. Sci. USA 94: 6099-6103 (1997) and Chemistry and Biology, 4(6): 461-471 (1997)

Sequence of type 2-methionine aminopeptidase (MetAP-2) (P50579 whole entry, species assumed): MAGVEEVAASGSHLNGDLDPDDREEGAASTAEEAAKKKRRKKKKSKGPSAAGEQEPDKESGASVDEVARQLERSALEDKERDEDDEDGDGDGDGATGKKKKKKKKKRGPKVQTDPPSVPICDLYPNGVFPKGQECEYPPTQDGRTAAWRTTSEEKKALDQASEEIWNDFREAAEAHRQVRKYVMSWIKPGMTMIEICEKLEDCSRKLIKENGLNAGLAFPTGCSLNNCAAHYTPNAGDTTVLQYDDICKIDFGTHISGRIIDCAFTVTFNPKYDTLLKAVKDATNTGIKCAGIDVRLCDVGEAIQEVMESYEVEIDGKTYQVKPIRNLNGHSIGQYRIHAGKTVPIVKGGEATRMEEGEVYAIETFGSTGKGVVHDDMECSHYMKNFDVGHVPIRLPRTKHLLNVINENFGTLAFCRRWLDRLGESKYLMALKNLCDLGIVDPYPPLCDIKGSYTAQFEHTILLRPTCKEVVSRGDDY

Compound: CO[C@@H]1[C@H](OC(=O)NC(=O)CCl)CC[C@]2(CO2)[C@H]1[C@@]1(C)O[C@@H]1CC=C(C)C [AGM-1470]
- binding to MetAP-2: bind
